In the NIST ThermoML archive (doi:10.1021/je700521t):

Assay: xn = mol fraction of the nth substance listed
Details: 101 kPa, Liquid

CCCCCCCC[n+]1ccn(C)c1.F[B-](F)(F)F [1-methyl-3-octylimidazolium tetrafluoroborate] + CCO
Details | mass density [kg/m3] | viscosity [mPa·s]
283.15 K, x2 = 0.081 | 1122.9 | 718.47
283.15 K, x2 = 0.161 | 1118 | 492.73
283.15 K, x2 = 0.315 | 1098.7 | 167.49
283.15 K, x2 = 0.511 | 1064.7 | 51.57
283.15 K, x2 = 0.612 | 1039.7 | 27.12
283.15 K, x2 = 0.753 | 991.3 | 12.45
288.15 K, x2 = 0.081 | 1119.4 | 507.18
288.15 K, x2 = 0.161 | 1114.5 | 354.89
288.15 K, x2 = 0.315 | 1095.2 | 127.69
288.15 K, x2 = 0.511 | 1061.3 | 41.43
288.15 K, x2 = 0.612 | 1036 | 22.05
288.15 K, x2 = 0.753 | 987.5 | 10.36
293.15 K, x2 = 0.081 | 1115.9 | 366.59
293.15 K, x2 = 0.161 | 1111 | 261.54
293.15 K, x2 = 0.315 | 1091.8 | 98.92
293.15 K, x2 = 0.511 | 1057.8 | 35.28
293.15 K, x2 = 0.612 | 1032.2 | 18.24
293.15 K, x2 = 0.753 | 983.6 | 8.79
298.15 K, x2 = 0.081 | 1112.4 | 268.93
298.15 K, x2 = 0.161 | 1107.5 | 194.74
298.15 K, x2 = 0.315 | 1088.3 | 78.63
298.15 K, x2 = 0.511 | 1054.2 | 28.87
298.15 K, x2 = 0.612 | 1028.4 | 15.35
298.15 K, x2 = 0.753 | 979.7 | 7.53
303.15 K, x2 = 0.081 | 1108.9 | 203.35
303.15 K, x2 = 0.161 | 1104 | 150.36
303.15 K, x2 = 0.315 | 1084.8 | 63.33
303.15 K, x2 = 0.511 | 1050.6 | 23.94
303.15 K, x2 = 0.612 | 1024.7 | 12.98
303.15 K, x2 = 0.753 | 975.7 | 6.51
308.15 K, x2 = 0.081 | 1105.5 | 156.29
308.15 K, x2 = 0.161 | 1100.7 | 117.36
308.15 K, x2 = 0.315 | 1081.3 | 51.59
308.15 K, x2 = 0.511 | 1046.9 | 20.13
308.15 K, x2 = 0.612 | 1020.9 | 11.16
308.15 K, x2 = 0.753 | 971.8 | 5.66
313.15 K, x2 = 0.081 | 1102.2 | 123.27
313.15 K, x2 = 0.161 | 1097.3 | 93.2
313.15 K, x2 = 0.315 | 1077.8 | 42.48
313.15 K, x2 = 0.511 | 1043.2 | 17.09
313.15 K, x2 = 0.612 | 1017.2 | 9.61
313.15 K, x2 = 0.753 | 968 | 4.96
318.15 K, x2 = 0.081 | 1098.8 | 97.69
318.15 K, x2 = 0.161 | 1093.9 | 75.37
318.15 K, x2 = 0.315 | 1074.3 | 35.84
318.15 K, x2 = 0.511 | 1039.3 | 14.67
318.15 K, x2 = 0.612 | 1013.4 | 8.39
318.15 K, x2 = 0.753 | 964.1 | 4.38
323.15 K, x2 = 0.081 | 1095.4 | 79.43
323.15 K, x2 = 0.161 | 1090.5 | 61.66
323.15 K, x2 = 0.315 | 1070.9 | 30.38
323.15 K, x2 = 0.511 | 1034.9 | 12.72
323.15 K, x2 = 0.612 | 1009.7 | 7.39
323.15 K, x2 = 0.753 | 960.2 | 3.89
328.15 K, x2 = 0.081 | 1092.1 | 65.03
328.15 K, x2 = 0.161 | 1087.1 | 51.12
328.15 K, x2 = 0.315 | 1067.4 | 26.04
328.15 K, x2 = 0.511 | 1030.3 | 11.1
328.15 K, x2 = 0.612 | 1005.9 | 6.55
328.15 K, x2 = 0.753 | 956.4 | 3.5
333.15 K, x2 = 0.081 | 1088.7 | 54.15
333.15 K, x2 = 0.161 | 1083.7 | 42.99
333.15 K, x2 = 0.315 | 1064 | 22.54
333.15 K, x2 = 0.511 | 1028.7 | 9.77
333.15 K, x2 = 0.612 | 1002.2 | 5.8
333.15 K, x2 = 0.753 | 952.5 | 3.17
338.15 K, x2 = 0.081 | 1085.4 | 45.46
338.15 K, x2 = 0.161 | 1080.3 | 36.47
338.15 K, x2 = 0.315 | 1060.5 | 19.73
338.15 K, x2 = 0.511 | 1025.2 | 8.65
338.15 K, x2 = 0.612 | 998.5 | 5.18
338.15 K, x2 = 0.753 | 948.6 | 2.89
343.15 K, x2 = 0.081 | 1082.1 | 39.03
343.15 K, x2 = 0.161 | 1077 | 31.51
343.15 K, x2 = 0.315 | 1057.1 | 17.42
343.15 K, x2 = 0.511 | 1021.3 | 7.74
343.15 K, x2 = 0.612 | 994.7 | 4.7
343.15 K, x2 = 0.753 | 944.7 | 2.65

CCCCn1cc[n+](C)c1.[O-][Cl+3]([O-])([O-])[O-] [1-butyl-3-methylimidazolium perchlorate] + CCO
mass density [kg/m3], Vibrating tube method
Details | x2 = 0.1 | x2 = 0.165 | x2 = 0.291 | x2 = 0.401 | x2 = 0.479 | x2 = 0.592 | x2 = 0.637 | x2 = 0.79 | x2 = 0.86
283.15 K | 1249.3 | 1239.4 | 1216.6 | 1192 | 1173.6 | – | – | – | –
288.15 K | 1245.7 | 1235.7 | 1212.8 | 1188.3 | 1169.8 | – | – | – | –
293.15 K | 1242.1 | 1231.9 | 1208.9 | 1184.6 | 1166.1 | 1129.6 | 1110.4 | 1022.6 | 960.5
298.15 K | 1238.6 | 1228 | 1205 | 1180.9 | 1162.2 | 1125.8 | 1104.6 | 1018.7 | 956.7
303.15 K | 1235.1 | 1224.1 | 1199.8 | 1177.2 | 1158.3 | 1122 | 1102.7 | 1014.8 | 952.7
308.15 K | 1231.7 | 1220.3 | 1195.8 | 1173.6 | – | 1117.5 | 1100.6 | 1011 | 948.7
313.15 K | 1228.2 | 1216.2 | 1193.1 | 1169.9 | – | 1114.8 | 1096.7 | 1007 | 944.6
318.15 K | 1224.7 | 1211.2 | 1188.9 | – | – | – | – | – | –
323.15 K | 1221.3 | 1207.2 | 1184.7 | – | – | – | – | – | –
328.15 K | 1217.8 | 1201 | 1180.1 | – | – | – | – | – | –
333.15 K | 1214.4 | 1198.7 | 1175.2 | – | – | – | – | – | –
338.15 K | 1211 | 1195.4 | 1169.3 | – | – | – | – | – | –
343.15 K | 1207.5 | 1190.3 | 1159.4 | – | – | – | – | – | –

viscosity [mPa·s]
Details | x2 = 0.1 | x2 = 0.165 | x2 = 0.291 | x2 = 0.401 | x2 = 0.479 | x2 = 0.592 | x2 = 0.637 | x2 = 0.79 | x2 = 0.86
283.15 K | 255.52 | 181.83 | 87.42 | 50.26 | 35.48 | – | – | – | –
288.15 K | 188.52 | 136.86 | 68.04 | 40.89 | 29.17 | – | – | – | –
293.15 K | 142.2 | 105.92 | 54.9 | 33.49 | 24.41 | 12.98 | 11.66 | 5.38 | 4.96
298.15 K | 109.99 | 83.35 | 44.84 | 27.92 | 20.67 | 11.13 | 10.06 | 4.62 | 4.22
303.15 K | 86.43 | 66.48 | 36.75 | 23.38 | 17.56 | 9.6 | 8.71 | 4.03 | 3.59
308.15 K | 69.74 | 54.25 | 30.63 | 20.06 | – | 8.48 | 7.52 | 3.74 | 3.16
313.15 K | 56.98 | 44.76 | 26.13 | 17.38 | – | 7.43 | 6.66 | 3.46 | 2.8
318.15 K | 46.98 | 37.2 | 22.14 | – | – | – | – | – | –
323.15 K | 39.45 | 31.56 | 19.51 | – | – | – | – | – | –
328.15 K | 33.69 | 27.02 | 17.16 | – | – | – | – | – | –
333.15 K | 28.86 | 23.5 | 15.43 | – | – | – | – | – | –
338.15 K | 24.94 | 20.45 | 13.79 | – | – | – | – | – | –
343.15 K | 21.69 | 18.12 | – | – | – | – | – | – | –
